Assay results as given in ChEMBL document CHEMBL3044634, “Synthesis and evaluation of antibacterial and antifungal activities of new (Z)-3-bromo-4-(1,3-diaryl-1H-pyrazol-4-yl)but-3-en-2-ones and 4-(3-methyl-1-phenyl-1H-pyrazol-5-yl)-1,3-diaryl-1H-pyrazoles” (2013).
≈ marks a conversion by molar mass, not a printed value. Calls of active or inactive are those of the source. The rule behind the calls is not given here.

What was measured:
[1] = system: Aspergillus niger; experiment: Growth inhibition of Aspergillus niger at 4 mg/ml after 7 days by poisoned-food technique; format: functional; settings: 168 h, read-out: GI
[2] = system: Aspergillus flavus; experiment: Growth inhibition of Aspergillus flavus at 4 mg/ml after 7 days by poisoned-food technique; format: functional; settings: 168 h, read-out: GI
[3] = system: Bacillus subtilis; experiment: Antibacterial activity against Bacillus subtilis MTCC 121 after 24 hr by macrodilution tube method; format: functional; settings: MTCC 121, 24 h
[4] = system: Staphylococcus aureus; experiment: Antibacterial activity against Staphylococcus aureus MTCC 96 after 24 hr by macrodilution tube method; format: functional; settings: MTCC 96, 24 h
[5] = system: Escherichia coli; experiment: Antibacterial activity against Escherichia coli MTCC 1652 at 2 mg/ml after 24 hr by agar well diffusion method; format: functional, organism-based
[6] = system: Bacillus subtilis; experiment: Antibacterial activity against Bacillus subtilis MTCC 121 at 2 mg/ml after 24 hr by agar well diffusion method; format: functional; settings: MTCC 121, 24 h, read-out: DIZ
[7] = system: Staphylococcus aureus; experiment: Antibacterial activity against Staphylococcus aureus MTCC 96 at 2 mg/ml after 24 hr by agar well diffusion method; format: functional; settings: MTCC 96, 24 h, read-out: DIZ
[8] = system: Pseudomonas aeruginosa; experiment: microbe, parasite or virus in culture; settings: MTCC 741, 24 h, read-out: DIZ
Description: Antibacterial activity against Pseudomonas aeruginosa MTCC 741 at 2 mg/ml after 24 hr by agar well diffusion method

SMILES	inhibition of growth at 4000 µg/mL [1] [%]	inhibition of growth at 4000 µg/mL [2] [%]	MIC [3] [µg/mL]	MIC [4] [µg/mL]	Activity [5]	zone of inhibition at 2000 µg/mL [6] [mm]	zone of inhibition at 2000 µg/mL [7] [mm]	zone of inhibition at 2000 µg/mL [8] [mm]
Cc1cc(-c2cn(-c3ccc([N+](=O)[O-])cc3)nc2-c2ccccc2)n(-c2ccccc2)n1	43.3	45.5	256 (≈ 607 µM)	256 (≈ 607 µM)	inactive	14.3	13.6	–
CC(=O)/C(Br)=C/c1cn(-c2ccccc2)nc1-c1ccc(Br)cc1	55.5	58.8	64 (≈ 143 µM)	32 (≈ 71.7 µM)	inactive	19.3	21.3	–
O=C(O)c1cn(C2CC2)c2cc(N3CCNCC3)c(F)cc2c1=O [CIPROFLOXACIN]	–	–	5 (≈ 15.1 µM)	5 (≈ 15.1 µM)	–	24	26	25.3
Cc1cc(-c2cn(-c3ccccc3)nc2-c2ccccc2)n(-c2ccccc2)n1	44.4	46.6	128 (≈ 340 µM)	128 (≈ 340 µM)	inactive	15.6	16.3	–
CC(=O)/C(Br)=C/c1cn(-c2ccc([N+](=O)[O-])cc2)nc1-c1ccc(F)cc1	48.8	50	128 (≈ 298 µM)	128 (≈ 298 µM)	inactive	17.3	16.6	–
COc1ccc(-c2nn(-c3ccc([N+](=O)[O-])cc3)cc2/C=C(\Br)C(C)=O)cc1	45.5	50	128 (≈ 289 µM)	128 (≈ 289 µM)	inactive	16	15.6	–
Cc1cc(-c2cn(-c3ccccc3)nc2-c2ccc(Br)cc2)n(-c2ccccc2)n1	55.5	52.2	32 (≈ 70.3 µM)	64 (≈ 141 µM)	inactive	20.6	19.3	–
CC(=O)/C(Br)=C/c1cn(-c2ccc([N+](=O)[O-])cc2)nc1-c1ccccc1	51.1	53.3	128 (≈ 310 µM)	64 (≈ 155 µM)	inactive	17.3	19.3	–
CC(=O)/C(Br)=C/c1cn(-c2ccccc2)nc1-c1ccc(F)cc1	53.3	55.5	32 (≈ 83.1 µM)	32 (≈ 83.1 µM)	inactive	21.6	20.6	–
Cc1cc(-c2cn(-c3ccc([N+](=O)[O-])cc3)nc2-c2ccc(F)cc2)n(-c2ccccc2)n1	44.4	47.7	128 (≈ 291 µM)	256 (≈ 583 µM)	inactive	15.6	13.6	–
COc1ccc(-c2nn(-c3ccccc3)cc2/C=C(\Br)C(C)=O)cc1	45.5	44.4	128 (≈ 322 µM)	128 (≈ 322 µM)	inactive	16.3	15.6	–
CC(=O)/C(Br)=C/c1cn(-c2ccccc2)nc1-c1ccc(Cl)cc1	50	45.5	128 (≈ 319 µM)	256 (≈ 637 µM)	inactive	16.3	14.6	–
CC(=O)/C(Br)=C/c1cn(-c2ccccc2)nc1-c1ccc([N+](=O)[O-])cc1	48.8	52.2	128 (≈ 310 µM)	128 (≈ 310 µM)	inactive	17.6	16	–
CC(=O)/C(Br)=C/c1cn(-c2ccccc2)nc1-c1ccc(C)cc1	51.1	52.2	128 (≈ 336 µM)	64 (≈ 168 µM)	inactive	17	18.3	–
COc1ccc(-c2nn(-c3ccccc3)cc2-c2cc(C)nn2-c2ccccc2)cc1	41.1	44.4	256 (≈ 630 µM)	128 (≈ 315 µM)	inactive	14	15.3	–
Cc1cc(-c2cn(-c3ccccc3)nc2-c2ccc(F)cc2)n(-c2ccccc2)n1	43.3	44.4	128 (≈ 325 µM)	128 (≈ 325 µM)	inactive	16.3	15	–
Cc1cc(-c2cn(-c3ccccc3)nc2-c2ccc(Cl)cc2)n(-c2ccccc2)n1	48.8	51.1	128 (≈ 312 µM)	256 (≈ 623 µM)	inactive	16.3	14.3	–
COc1ccc(-c2nn(-c3ccc([N+](=O)[O-])cc3)cc2-c2cc(C)nn2-c2ccccc2)cc1	46.6	44.4	128 (≈ 284 µM)	256 (≈ 567 µM)	inactive	14	15.3	–
CC(=O)/C(Br)=C/c1cn(-c2ccccc2)nc1-c1ccccc1	51.1	48.8	128 (≈ 349 µM)	128 (≈ 349 µM)	inactive	16.6	15.3	–
Cc1ccc(-c2nn(-c3ccccc3)cc2-c2cc(C)nn2-c2ccccc2)cc1	44.4	45.5	128 (≈ 328 µM)	256 (≈ 656 µM)	inactive	16.3	14.6	–
Cc1cc(-c2cn(-c3ccccc3)nc2-c2ccc([N+](=O)[O-])cc2)n(-c2ccccc2)n1	51.1	53.3	64 (≈ 152 µM)	64 (≈ 152 µM)	inactive	18.6	17.6	–
OC(Cn1cncn1)(Cn1cncn1)c1ccc(F)cc1F [FLUCONAZOLE]	81.1	77.7	–	–	–	–	–	–
